Results taken from patent US20250326753A1, “DUAL CXCR4-BTK INHIBITORS” (X4 Pharmaceuticals, Inc., priority 2022, published 2025).

Experiments:
Type in all cases: biochemical
BMX = molecular target: T1, BMX (Homo sapiens, UniProt P51813); assay: PanQinase kinase panel: BMX; details: read-out: INHIBITORY EFFECT @ 1 uM: BMX
T1 construct: purchased Reaction Biology Europe GmbH
T1 sequence (P51813 1-675): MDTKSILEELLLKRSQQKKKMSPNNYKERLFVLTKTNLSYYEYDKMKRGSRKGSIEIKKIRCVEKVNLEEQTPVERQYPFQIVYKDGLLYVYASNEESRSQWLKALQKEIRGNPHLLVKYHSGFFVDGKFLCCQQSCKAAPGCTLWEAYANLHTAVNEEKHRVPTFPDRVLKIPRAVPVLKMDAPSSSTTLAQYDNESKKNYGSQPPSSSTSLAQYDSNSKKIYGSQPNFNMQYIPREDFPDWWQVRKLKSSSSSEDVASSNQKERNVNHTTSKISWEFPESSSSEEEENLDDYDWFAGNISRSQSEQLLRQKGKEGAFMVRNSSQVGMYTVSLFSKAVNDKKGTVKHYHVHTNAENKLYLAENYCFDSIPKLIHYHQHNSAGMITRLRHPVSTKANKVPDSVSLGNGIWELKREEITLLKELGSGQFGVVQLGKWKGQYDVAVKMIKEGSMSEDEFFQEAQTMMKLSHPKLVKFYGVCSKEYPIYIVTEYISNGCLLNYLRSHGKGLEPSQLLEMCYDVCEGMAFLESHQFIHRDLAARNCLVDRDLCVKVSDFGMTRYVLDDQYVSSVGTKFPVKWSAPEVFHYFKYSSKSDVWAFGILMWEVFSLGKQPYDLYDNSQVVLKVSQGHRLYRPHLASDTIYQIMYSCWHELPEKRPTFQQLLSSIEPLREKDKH
Protocol: (§1) Screening procedures were performed in accordance with the company's on-line protocol [accessed on-line Mar.
(§2) For each kinase, the median value of the cpm of three wells was defined as “low control” (n=3). This value reflects unspecific binding of radioactivity to the plate in the absence of a protein kinase but in the presence of the substrate. Additionally, for each kinase the median value of the cpm of three other wells was taken as the “high control,” i.e. full activity in the absence of any inhibitor (n=3). The difference between high and low control of each enzyme was taken as 100% activity.
As part of the data evaluation the low control of each kinase was subtracted from the high control value as well as from their corresponding “compound values”.

TXK = molecular target: T2, TXK (Homo sapiens, UniProt P42681); assay: PanQinase kinase panel: TXK; details: read-out: INHIBITORY EFFECT @ 1 uM: TXK
T2 construct: purchased Reaction Biology Europe GmbH
T2 sequence (P42681 1-527): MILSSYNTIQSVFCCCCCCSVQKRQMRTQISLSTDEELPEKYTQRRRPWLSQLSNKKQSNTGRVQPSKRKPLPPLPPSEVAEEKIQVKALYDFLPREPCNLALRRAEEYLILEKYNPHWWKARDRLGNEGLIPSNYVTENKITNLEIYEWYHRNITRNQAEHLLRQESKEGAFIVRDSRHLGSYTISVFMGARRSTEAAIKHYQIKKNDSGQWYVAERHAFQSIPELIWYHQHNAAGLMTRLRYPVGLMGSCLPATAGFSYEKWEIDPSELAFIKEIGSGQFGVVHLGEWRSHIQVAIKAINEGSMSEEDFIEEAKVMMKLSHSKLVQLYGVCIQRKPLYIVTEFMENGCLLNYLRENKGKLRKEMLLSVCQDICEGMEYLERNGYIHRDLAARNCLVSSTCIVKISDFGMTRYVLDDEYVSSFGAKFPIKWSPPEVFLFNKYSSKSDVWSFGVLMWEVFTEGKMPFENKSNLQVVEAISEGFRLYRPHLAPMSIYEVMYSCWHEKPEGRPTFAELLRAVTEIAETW
Protocol: as §1, §2
(§3) As part of the data evaluation the low control of each kinase was subtracted from the high control value as well as from their corresponding “compound values”. The residual activity (in %) for each compound well was calculated by using the following formula: Res. Activity (%)=100×[(signal of compound−low control)/(high control−low control)].

ERBB2 = molecular target: T3, ERBB2 (Homo sapiens, UniProt P04626); assay: PanQinase kinase panel: ERBB2; details: read-out: INHIBITORY EFFECT @ 1 uM: ERBB2
T3 construct: purchased Reaction Biology Europe GmbH
Protocol: as §1, §2, §3

FGFR3 = molecular target: T4, FGFR3 (Homo sapiens, UniProt P22607); assay: PanQinase kinase panel: FGFR3; details: read-out: INHIBITORY EFFECT @ 1 uM: FGFR3
T4 construct: purchased Reaction Biology Europe GmbH
Protocol: as §1, §2, §3

CK1epsilon = molecular target: T5, CK1epsilon (Homo sapiens, UniProt P49674); assay: PanQinase kinase panel: CK1epsilon; details: read-out: INHIBITORY EFFECT @ 1 uM: CK1epsilon
T5 construct: purchased Reaction Biology Europe GmbH
Protocol: as §1, §2, §3

PAK2 = molecular target: T6, PAK2 (Homo sapiens, UniProt Q13177); assay: PanQinase kinase panel: PAK2; details: read-out: INHIBITORY EFFECT @ 1 uM: PAK2
T6 construct: purchased Reaction Biology Europe GmbH
Protocol: as §1, §2, §3

T5 sequence (P49674 whole entry): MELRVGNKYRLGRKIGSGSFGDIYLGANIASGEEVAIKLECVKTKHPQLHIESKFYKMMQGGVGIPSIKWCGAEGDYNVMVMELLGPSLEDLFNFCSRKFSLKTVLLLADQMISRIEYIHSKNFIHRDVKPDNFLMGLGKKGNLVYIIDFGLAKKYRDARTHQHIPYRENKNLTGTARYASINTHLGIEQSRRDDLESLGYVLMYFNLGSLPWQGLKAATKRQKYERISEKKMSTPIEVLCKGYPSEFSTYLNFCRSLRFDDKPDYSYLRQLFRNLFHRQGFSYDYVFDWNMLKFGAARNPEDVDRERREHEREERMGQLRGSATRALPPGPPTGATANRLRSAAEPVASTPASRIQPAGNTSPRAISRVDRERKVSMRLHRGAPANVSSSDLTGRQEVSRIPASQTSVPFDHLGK
T3 sequence (P04626 23-1255): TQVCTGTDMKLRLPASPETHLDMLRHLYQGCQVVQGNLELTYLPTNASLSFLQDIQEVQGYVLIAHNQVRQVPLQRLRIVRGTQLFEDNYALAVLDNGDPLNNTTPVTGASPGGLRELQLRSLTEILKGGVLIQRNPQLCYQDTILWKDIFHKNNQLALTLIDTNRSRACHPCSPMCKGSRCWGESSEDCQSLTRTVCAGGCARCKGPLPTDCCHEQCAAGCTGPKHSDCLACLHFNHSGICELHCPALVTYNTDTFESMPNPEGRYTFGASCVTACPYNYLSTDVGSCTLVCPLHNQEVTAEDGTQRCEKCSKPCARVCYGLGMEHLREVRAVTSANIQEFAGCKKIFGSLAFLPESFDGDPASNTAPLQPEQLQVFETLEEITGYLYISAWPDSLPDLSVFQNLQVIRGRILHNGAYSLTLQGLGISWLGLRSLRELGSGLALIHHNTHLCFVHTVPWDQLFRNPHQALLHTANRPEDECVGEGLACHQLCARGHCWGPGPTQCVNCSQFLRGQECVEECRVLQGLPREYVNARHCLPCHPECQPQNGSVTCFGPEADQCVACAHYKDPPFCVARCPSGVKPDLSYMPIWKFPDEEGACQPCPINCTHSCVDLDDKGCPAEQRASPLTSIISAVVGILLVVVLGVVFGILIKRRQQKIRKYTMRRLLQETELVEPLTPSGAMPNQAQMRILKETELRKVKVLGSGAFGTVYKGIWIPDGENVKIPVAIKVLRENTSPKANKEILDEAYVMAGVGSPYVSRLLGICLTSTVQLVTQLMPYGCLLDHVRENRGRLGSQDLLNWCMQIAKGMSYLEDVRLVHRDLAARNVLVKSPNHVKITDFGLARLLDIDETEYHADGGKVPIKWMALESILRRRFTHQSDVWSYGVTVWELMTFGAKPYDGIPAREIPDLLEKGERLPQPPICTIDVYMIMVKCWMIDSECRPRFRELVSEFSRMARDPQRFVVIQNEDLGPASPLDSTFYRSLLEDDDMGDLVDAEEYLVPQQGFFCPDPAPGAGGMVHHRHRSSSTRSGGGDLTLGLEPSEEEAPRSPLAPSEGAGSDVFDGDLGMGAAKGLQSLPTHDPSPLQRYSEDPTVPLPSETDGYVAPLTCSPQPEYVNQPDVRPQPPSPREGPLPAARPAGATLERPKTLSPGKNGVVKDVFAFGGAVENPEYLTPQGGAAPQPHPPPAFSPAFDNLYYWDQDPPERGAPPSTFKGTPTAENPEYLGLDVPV
T6 sequence (Q13177 whole entry): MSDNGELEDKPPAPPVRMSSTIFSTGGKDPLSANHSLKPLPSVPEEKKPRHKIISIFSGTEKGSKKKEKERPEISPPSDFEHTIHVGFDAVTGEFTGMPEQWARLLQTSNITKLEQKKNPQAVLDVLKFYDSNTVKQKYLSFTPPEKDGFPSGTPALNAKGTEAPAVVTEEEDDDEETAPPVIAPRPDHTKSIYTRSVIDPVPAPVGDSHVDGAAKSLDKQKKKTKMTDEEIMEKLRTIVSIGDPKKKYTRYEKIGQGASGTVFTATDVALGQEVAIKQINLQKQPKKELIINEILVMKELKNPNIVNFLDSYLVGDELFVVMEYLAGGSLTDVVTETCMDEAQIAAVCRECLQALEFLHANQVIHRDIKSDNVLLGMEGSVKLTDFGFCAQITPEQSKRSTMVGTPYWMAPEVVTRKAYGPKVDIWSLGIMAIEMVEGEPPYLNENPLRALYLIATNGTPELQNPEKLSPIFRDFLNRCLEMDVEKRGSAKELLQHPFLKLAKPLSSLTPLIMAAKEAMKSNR
T4 sequence (P22607 23-806): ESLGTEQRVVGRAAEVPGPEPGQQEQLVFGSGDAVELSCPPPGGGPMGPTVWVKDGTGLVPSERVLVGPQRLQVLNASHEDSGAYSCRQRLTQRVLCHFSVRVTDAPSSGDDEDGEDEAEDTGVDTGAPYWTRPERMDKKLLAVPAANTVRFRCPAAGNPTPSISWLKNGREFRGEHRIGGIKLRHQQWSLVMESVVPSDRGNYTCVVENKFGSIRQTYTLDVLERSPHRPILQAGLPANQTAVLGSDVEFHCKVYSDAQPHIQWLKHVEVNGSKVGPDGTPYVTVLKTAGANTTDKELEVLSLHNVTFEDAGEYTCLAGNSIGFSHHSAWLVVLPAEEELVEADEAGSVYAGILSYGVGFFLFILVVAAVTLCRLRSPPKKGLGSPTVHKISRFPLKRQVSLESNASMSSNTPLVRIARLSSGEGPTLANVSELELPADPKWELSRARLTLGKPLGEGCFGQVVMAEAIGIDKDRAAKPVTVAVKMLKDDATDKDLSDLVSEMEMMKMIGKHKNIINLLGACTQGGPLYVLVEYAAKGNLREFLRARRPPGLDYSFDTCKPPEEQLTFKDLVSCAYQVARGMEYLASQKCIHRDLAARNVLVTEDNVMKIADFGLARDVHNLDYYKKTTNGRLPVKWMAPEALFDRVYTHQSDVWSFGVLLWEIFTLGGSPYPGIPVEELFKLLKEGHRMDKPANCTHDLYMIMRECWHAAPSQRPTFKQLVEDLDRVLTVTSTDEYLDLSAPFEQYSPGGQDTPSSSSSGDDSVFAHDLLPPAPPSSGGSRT

Row | Compound | inhibition at 1 µM (BMX) | inhibition at 1 µM (TXK) | inhibition at 1 µM (ERBB2) | inhibition at 1 µM (FGFR3) | inhibition at 1 µM (CK1epsilon) | inhibition at 1 µM (PAK2)
1 | O=C(c1ccc(Oc2ccccc2)cc1Cl)c1c[nH]c2ncnc(N[C@@H]3CC[C@@H](CO)OC3)c12 [ARQ-531, (2-chloro-4-phenoxyphenyl) (4-(((3R,6S)-6-(hydroxymethyl)tetrahydro-2H-pyran-3-yl)amino)-7H-pyrrolo[2,3-d]pyrimidin-5-yl) methanone] | 90 to 100% | 90 to 100% | 70 to 89% | 50 to 69% | 50 to 69% | 70 to 89%
2 | Cc1cccnc1[C@H]1CCC[C@@H](c2ncccc2C)N1CCN1CCN(C(=O)c2ccc(-c3cc4c(-c5cccc(NC(=O)c6ccccc6)c5C)ncnc4[nH]3)cc2)CC1 [Compound I-10, N-(3-(6-(4-(4-(2-((2R,6S)-2,6-bis(3-methylpyridin-2-yl)piperidin-1-yl)ethyl)piperazine-1-carbonyl)phenyl)-7H-pyrrolo[2,3-d]pyrimidin-4-yl)-2-methylphenyl)benzamide] | 70 to 89% | < 50% | < 50% | < 50% | < 50% | < 50%
3 | COc1ccc(F)cc1C(=O)NCc1ccc(-c2nn([C@@H](C)C(F)(F)F)c(N)c2C(N)=O)cc1 [LOXO-305, pirtobrutinib] | 50 to 69% | 50 to 69% | 50 to 69% | < 50% | < 50% | < 50%
4 | C=CC(=O)N1CCC([C@@H]2CCNc3c(C(N)=O)c(-c4ccc(Oc5ccccc5)cc4)nn32)CC1 [Zanubrutinib, (7S)-2-(4-phenoxyphenyl)-7-(1-prop-2-enoylpiperidin-4-yl)-4,5,6,7-tetrahydropyrazolo[1,5-a]pyrimidine-3-carboxamide] | – | 90 to 100% | < 50% | < 50% | < 50% | < 50%
